Measured values reported in patent US20260109707A1, “HETEROBIFUNCTIONAL COMPOUNDS AND METHODS OF TREATING DISEASE” (Halda Therapeutics OpCo. Inc., priority 2022, published 2026).
Like-named read-outs stand apart in the source and are kept apart here.

Assays:
[1] = tested on: T-Rex 293 cell line SC3 cells having increased expression of androgen receptor protein due to exposure to doxycycline; test: Cellular growth inhibition assay, T-Rex 293 SC3 cells with doxycycline (CellTiter-Glo, 72 hours); assay type: cell-based; conditions: T-Rex 293 SC3 cells with increased androgen receptor expression due to doxycycline (10 ng/mL)
Outline: (§1)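 Doxycycline (10 ng/mL) was either included or omitted to toggle wild-type androgen receptor expression in SC3 cells, a T-Rex 293 clone, grown in stripped-serum, phenol red-free medium. After 72 hours with compound, viable cells were quantified by CellTiter-Glo 2.0.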

[2] = tested on: T-Rex 293 cell line SC3 cells lacking increased expression of androgen receptor protein; test: Cellular growth inhibition assay, T-Rex 293 SC3 cells without doxycycline (CellTiter-Glo, 72 hours); assay type: cell-based; conditions: T-Rex 293 cell line SC3 cells not exposed to doxycycline (lacking increased androgen receptor expression)
Outline: as §1

VCaP cells = test: Cellular growth inhibition assay for VCaP cells (CellTiter-Glo, 72 hours); assay type: cell-based, human
Outline: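 Luminescent viability signal after 72 h of compound exposure gave GI50 values by four-parameter nonlinear regression. Compounds were added in 0.5% DMSO to cells plated 24 h earlier at 5000/well in DMEM containing 10% FBS.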

Row | SMILES | GI50 (VCaP cells; Homo sapiens, VCaP, 72 h) | GI50 (VCaP cells) | GI50 ([1]; 72 h) | GI50 ([2]; 72 h) | GI50 [1] | GI50 [2]
1 | Cc1sc2c(c1C)C(c1ccc(CCCC3CCCN(c4ccc(C(=O)N[C@H]5CC[C@H](Oc6ccc(C#N)c(Cl)c6)CC5)nn4)CC3)nc1)=N[C@@H](C)c1nnc(C)n1-2 (stereo partly drawn) [I-672] | – | < 500 nM | – | – | < 500 nM | < 500 nM
2 | Cc1sc2c(c1C)C(c1ccc(C3CCC4(CCCN(c5ccc(C(=O)N[C@H]6CC[C@H](Oc7ccc(C#N)c(Cl)c7)CC6)nn5)C4)CC3)cc1)=N[C@@H](C)c1nnc(C)n1-2 (stereo partly drawn) [I-674] | – | < 500 nM | – | – | < 500 nM | > 3000 nM
3 | Cc1sc2c(c1C)C(c1ccc(C/C=C/C3CN(c4ccc(C(=O)N[C@H]5CC[C@H](Oc6ccc(C#N)c(Cl)c6)CC5)nn4)C3)cc1)=N[C@@H](Cc1ncco1)c1nnc(C)n1-2 [I-678] | > 3000 nM | – | < 500 nM | > 3000 nM | – | –
4 | Cc1sc2c(c1C)C(c1cccc(N3CCC4(CCN(c5ccc(C(=O)N[C@H]6CC[C@H](Oc7ccc(C#N)c(Cl)c7)CC6)nn5)C4)C3)c1)=N[C@@H](C)c1nnc(C)n1-2 (stereo partly drawn) [I-682] | 500 to 1500 nM | – | < 500 nM | – | – | 500 to 1500 nM
5 | Cc1sc2c(c1C)C(c1cccc(N3CC4(CCN(c5ccc(C(=O)N[C@H]6CC[C@H](Oc7ccc(C#N)c(Cl)c7)CC6)nn5)CC4)C3)c1)=N[C@@H](C)c1nnc(C)n1-2 [I-683] | > 3000 nM | – | > 3000 nM | > 3000 nM | – | –
6 | Cc1sc2c(c1C)C(c1cccc(CC3CC4(CCN(c5ccc(C(=O)N[C@H]6CC[C@H](Oc7ccc(C#N)c(Cl)c7)CC6)nn5)CC4)C3)c1)=N[C@@H](C)c1nnc(C)n1-2 [I-684] | 500 to 1500 nM | – | < 500 nM | > 3000 nM | – | –
7 | Cc1sc2c(c1C)C(c1ccccc1OCCC1CCN(c3ccc(C(=O)N[C@H]4CC[C@H](Oc5ccc(C#N)c(Cl)c5)CC4)nn3)CC1)=N[C@@H](C)c1nnc(C)n1-2 [I-689] | > 3000 nM | – | > 3000 nM | > 3000 nM | – | –
8 | Cc1sc2c(c1C)C(c1ccc(C3CCC4(CCCN(c5ccc(C(=O)N[C@H]6CC[C@H](Oc7ccc(C#N)c(Cl)c7)CC6)nn5)C4)CC3)cc1)=NC(C(F)(F)F)c1nnc(C)n1-2 (stereo partly drawn) [I-694] | > 3000 nM | – | > 3000 nM | > 3000 nM | – | –
9 | Cc1sc2c(c1C)C(c1ccc(C3CCC4(CCCN(c5ccc(C(=O)N[C@H]6CC[C@H](Oc7ccc(C#N)c(Cl)c7)CC6)nn5)C4)CC3)cc1)=NC(C(F)(F)F)c1nnc(C)n1-2 (stereo partly drawn) [I-695] | – | > 3000 nM | – | – | > 3000 nM | > 3000 nM
10 | Cc1sc2c(c1C)C(c1ccc(C3CCC4(CCCN(c5ccc(C(=O)N[C@H]6CC[C@H](Oc7ccc(C#N)c(Cl)c7)CC6)nn5)C4)CC3)cc1)=NC(C(F)(F)F)c1nnc(C)n1-2 (stereo partly drawn) [I-696] | – | > 3000 nM | – | – | > 3000 nM | > 3000 nM
11 | Cc1sc2c(c1C)C(c1ccc(C3CCC4(CCCN(c5ccc(C(=O)N[C@H]6CC[C@H](Oc7ccc(C#N)c(Cl)c7)CC6)nn5)C4)CC3)cc1)=NC(C(F)(F)F)c1nnc(C)n1-2 (stereo partly drawn) [I-697] | – | > 3000 nM | – | – | > 3000 nM | > 3000 nM
12 | Cc1sc2c(c1C)C(c1ccc(N3C4CCC3CC3(CCN(c5ccc(C(=O)N[C@H]6CC[C@H](Oc7ccc(C#N)c(Cl)c7)CC6)nn5)C3)C4)cc1)=N[C@@H](C)c1nnc(C)n1-2 (stereo partly drawn) [I-698] | < 500 nM | – | – | – | < 500 nM | < 500 nM
13 | Cc1sc2c(c1C)C(c1ccc(CCCC3CCCN(c4ccc(C(=O)N[C@H]5CC[C@H](Oc6ccc(C#N)c(Cl)c6)CC5)nn4)CC3)cn1)=N[C@@H](C)c1nnc(C)n1-2 (stereo partly drawn) [I-700] | – | < 500 nM | – | – | < 500 nM | < 500 nM
14 | Cc1sc2c(c1C)C(c1ccc(OC3CCC4(CCN(c5ccc(C(=O)N[C@H]6CC[C@H](Oc7ccc(C#N)c(Cl)c7)CC6)nn5)C4)C3)cc1)=N[C@@H](C)c1nnc(C)n1-2 (stereo partly drawn) [I-702] | – | < 500 nM | – | – | < 500 nM | 500 to 1500 nM
15 | Cc1sc2c(c1C)C(c1ccc(N3C[C@H]4CN(c5ccc(C(=O)N[C@H]6CC[C@H](Oc7ccc(C#N)c(Cl)c7)CC6)nn5)C[C@H]4C3)c(F)c1)=N[C@@H](C)c1nnc(C)n1-2 [I-703] | 500 to 1500 nM | – | < 500 nM | < 500 nM | – | –
16 | Cc1sc2c(c1C)C(c1ccc(N3C[C@@]4(C)CN(c5ccc(C(=O)N[C@H]6CC[C@H](Oc7ccc(C#N)c(Cl)c7)CC6)nn5)C[C@@]4(C)C3)cc1)=N[C@@H](C)c1nnc(C)n1-2 [I-704] | 500 to 1500 nM | – | < 500 nM | > 3000 nM | – | –
17 | Cc1sc2c(c1C)C(c1ccc(N3C[C@@H]4CN(c5ccc(C(=O)N[C@H]6CC[C@H](Oc7ccc(C#N)c(Cl)c7)CC6)nn5)C[C@H]4C3)cc1)=N[C@@H](C)c1nnc(C)n1-2 [I-706] | – | < 500 nM | – | – | < 500 nM | < 500 nM
18 | Cc1sc2c(c1C)C(c1cccc(N3CCC4(CCN(c5ccc(C(=O)N[C@H]6CC[C@H](Oc7ccc(C#N)c(Cl)c7)CC6)nn5)C4)C3)c1)=N[C@@H](C)c1nnc(C)n1-2 (stereo partly drawn) [I-708] | – | < 500 nM | – | – | < 500 nM | 1500 to 3000 nM
19 | Cc1sc2c(c1C)C(c1cccc(N3CC4(CCCN(c5ccc(C(=O)N[C@H]6CC[C@H](Oc7ccc(C#N)c(Cl)c7)CC6)nn5)C4)C3)c1)=N[C@@H](C)c1nnc(C)n1-2 [I-710] | > 3000 nM | – | < 500 nM | > 3000 nM | – | –

Second part, led by results:

Row | GI50 (VCaP cells; Homo sapiens, VCaP, 72 h) | GI50 (VCaP cells) | SMILES | GI50 ([1]; 72 h) | GI50 ([2]; 72 h) | GI50 [1] | GI50 [2]
20 | < 500 nM | – | Cc1sc2c(c1C)C(c1ccc(CCCC3CCCN(c4ccc(C(=O)N[C@H]5CC[C@H](Oc6ccc(C#N)c(Cl)c6)CC5)nn4)CC3)nc1)=N[C@@H](C)c1nnc(C)n1-2 (stereo partly drawn) [I-671] | < 500 nM | < 500 nM | – | –
21 | < 500 nM | – | Cc1sc2c(c1C)C(c1ccc(C3CCC4(CCCN(c5ccc(C(=O)N[C@H]6CC[C@H](Oc7ccc(C#N)c(Cl)c7)CC6)nn5)C4)CC3)cc1)=N[C@@H](C)c1nnc(C)n1-2 (stereo partly drawn) [I-673] | < 500 nM | > 3000 nM | – | –
22 | < 500 nM | – | Cc1sc2c(c1C)C(c1ccc(N3C[C@@]4(F)CN(c5ccc(C(=O)N[C@H]6CC[C@H](Oc7ccc(C#N)c(Cl)c7)CC6)nn5)C[C@@]4(F)C3)cc1)=N[C@@H](C)c1nnc(C)n1-2 [I-675] | < 500 nM | < 500 nM | – | –
23 | < 500 nM | – | Cc1sc2c(c1C)C(c1ccc(N3C[C@@H]4CN(c5ccc(C(=O)N[C@H]6CC[C@H](Oc7ccc(C#N)c(Cl)c7)CC6)nn5)C[C@@H]4C3)cc1F)=N[C@@H](C)c1nnc(C)n1-2 [I-676] | < 500 nM | < 500 nM | – | –
24 | < 500 nM | – | Cc1sc2c(c1C)C(c1cccc(OC3CCN(c4ccc(C(=O)N[C@H]5CC[C@H](Oc6ccc(C#N)c(Cl)c6)CC5)nn4)CC3)c1)=N[C@@H](C)c1nnc(C)n1-2 [I-680] | < 500 nM | > 3000 nM | – | –
25 | < 500 nM | – | Cc1sc2c(c1C)C(c1cccc(OCC3CCN(c4ccc(C(=O)N[C@H]5CC[C@H](Oc6ccc(C#N)c(Cl)c6)CC5)nn4)CC3)c1)=N[C@@H](C)c1nnc(C)n1-2 [I-681] | > 3000 nM | > 3000 nM | – | –
26 | < 500 nM | – | Cc1sc2c(c1C)C(c1cccc(N3CCC4(CC3)CCN(c3ccc(C(=O)N[C@H]5CC[C@H](Oc6ccc(C#N)c(Cl)c6)CC5)nn3)C4)c1)=N[C@@H](C)c1nnc(C)n1-2 [I-685] | < 500 nM | 500 to 1500 nM | – | –
27 | < 500 nM | – | Cc1sc2c(c1C)C(c1cccc(OC3CC4(CCCN(c5ccc(C(=O)N[C@H]6CC[C@H](Oc7ccc(C#N)c(Cl)c7)CC6)nn5)C4)C3)c1)=N[C@@H](C)c1nnc(C)n1-2 (stereo partly drawn) [I-686] | < 500 nM | – | – | > 3000 nM
28 | < 500 nM | – | Cc1sc2c(c1C)C(c1cccc(N3CCC4(CCCN(c5ccc(C(=O)N[C@H]6CC[C@H](Oc7ccc(C#N)c(Cl)c7)CC6)nn5)C4)CC3)c1)=N[C@@H](C)c1nnc(C)n1-2 [I-687] | < 500 nM | > 3000 nM | – | –
29 | < 500 nM | – | Cc1sc2c(c1C)C(c1cccc(CN3CCC4(CC3)CCN(c3ccc(C(=O)N[C@H]5CC[C@H](Oc6ccc(C#N)c(Cl)c6)CC5)nn3)C4)c1)=N[C@@H](C)c1nnc(C)n1-2 [I-688] | < 500 nM | 500 to 1500 nM | – | –
30 | < 500 nM | – | Cc1sc2c(c1C)C(c1ccccc1CC1CC3(CCN(c4ccc(C(=O)NC5CCC(Oc6ccc(C#N)c(Cl)c6)CC5)nn4)CC3)C1)=N[C@@H](C)c1nnc(C)n1-2 (stereo partly drawn) [I-690] | > 3000 nM | > 3000 nM | – | –
31 | < 500 nM | – | Cc1sc2c(c1C)C(c1ccc(C3CCC4(CCN(c5ccc(C(=O)N[C@H]6CC[C@H](Oc7ccc(C#N)c(Cl)c7)CC6)nn5)CC4)C3)cn1)=NC1(CC1)c1nnc(C)n1-2 (stereo partly drawn) [I-691] | < 500 nM | > 3000 nM | – | –
32 | < 500 nM | – | COC[C@@H]1N=C(c2ccc(CC3CC4(CCN(c5ccc(C(=O)N[C@H]6CC[C@H](Oc7ccc(C#N)c(Cl)c7)CC6)nn5)CC4)C3)cc2)c2c(sc(C)c2C)-n2c(C)nnc21 [I-692] | < 500 nM | < 500 nM | – | –
33 | < 500 nM | – | Cc1sc2c(c1C)C(c1ccc(CCCC3CCCN(c4ccc(C(=O)N[C@H]5CC[C@H](Oc6ccc(C#N)c(Cl)c6)CC5)nn4)CC3)cn1)=N[C@@H](C)c1nnc(C)n1-2 (stereo partly drawn) [I-699] | < 500 nM | – | – | > 3000 nM
34 | < 500 nM | – | Cc1sc2c(c1C)C(c1ccc(OC3CCC4(CCN(c5ccc(C(=O)N[C@H]6CC[C@H](Oc7ccc(C#N)c(Cl)c7)CC6)nn5)C4)C3)cc1)=N[C@@H](C)c1nnc(C)n1-2 (stereo partly drawn) [I-701] | – | – | < 500 nM | < 500 nM
35 | < 500 nM | – | Cc1sc2c(c1C)C(c1cccc(OC3CCC4(CC3)CCN(c3ccc(C(=O)N[C@H]5CC[C@H](Oc6ccc(C#N)c(Cl)c6)CC5)nn3)C4)c1)=N[C@@H](C)c1nnc(C)n1-2 (stereo partly drawn) [I-709] | – | – | < 500 nM | > 3000 nM
